Laboratory results taken from patent publication US9468212B2, “Antifungal compositions” (DSM IP ASSETS B.V., priority 2013, dated 2016).
Several values for one entry are separate records, joined by “and”; a condition that tells them apart may be missing. Equal values may be shown once.

How the values were obtained:
[1] = test system: Penicillium italicum; test: Treatment of oranges: wounded, inoculated with Penicillium italicum, wound treated with antifungal composition (Examples 7-9); format: in vivo; conditions: 500 ppm natamycin, 400 ppm fenpiclonil or both, oranges, 20° C.
Description: The expected antifungal activity (E in %) of the combined antifungal composition comprising both active ingredients was calculated according to the Colby equation (Colby, 1967): E=X+Y−[(X·Y)/100] wherein X and Y are the observed antifungal activities (in %) of the individual active ingredients X and Y, respectively.
Eight fresh, organic oranges were used per treatment. Each orange was soaked in a 180 ppm hypochlorite solution for 10 minutes, then rinsed thoroughly with fresh tap water and dried. The peel of each disinfected orange was wounded once using a cork borer according to the method described by de Lapeyre de Bellaire and Dubois (1987). Subsequently, each wound was inoculated with 10 μl of a Penicillium italicum suspension containing 5×10^5 of spores/ml. After incubation for 3 hours at 20° C., each wound and the orange peel area of 1 cm around the wound was treated with in total […] of a freshly prepared aqueous antifungal composition comprising either 500 ppm natamycin (DSM Food Specialties, Delft, The Netherlands), 300 ppm fludioxonil or both. Each antifungal composition also comprised 3.2% (w/w) beeswax, 0.8% (w/w) glycerol, 0.7% (w/w) polyoxyethylene sorbitan monostearate (Tween 60), 0.1% (w/w) polyoxyethylene sorbitan monooleate (Tween 80), 0.05% (w/w) methylhydroxyethyl-cellulose (MHEC), 0.03% (w/w) anti-foaming agent, 0.02% (w/w) xanthan gum, 0.02% (w/w) citric acid, 0.01% (w/w) lactic acid and 0.01% potassium sorbate. A composition without natamycin or fludioxonil was used as control.
The treated oranges were incubated in a closed box in the dark at 20° C. and assessed on mould growth during a 27-day incubation period.
(§1) The experiment was conducted as described in Example 7, except for the fact that each wounded and inoculated orange was treated with 150 μl of a freshly prepared aqueous antifungal composition comprising either 250 ppm natamycin (DSM Food Specialties, Delft, The Netherlands), 100 ppm fludioxonil or both. During incubation, the treated oranges were assessed on mould growth according to the two methods described in Example 5.
as §1, with “500” for “250”, “400” for “100”, “fenpiclonil” for “fludioxonil”, “a 23-day incubation period,” for “incubation,”

[2] = test system: Botrytis cinerea; test: Treatment of sweet peppers: wounded, inoculated with Botrytis cinerea, wound treated with antifungal composition (Example 10); format: in vivo; conditions: 400 ppm natamycin, 600 ppm fenpiclonil or both, 20° C.
Description: Ten fresh, organic sweet peppers were used per treatment. The peel of each sweet pepper was wounded once using a cork borer according to the method described by de Lapeyre de Bellaire and Dubois (1987). Subsequently, each wound was inoculated with 10 μl of a Botrytis cinerea suspension containing 1×10^5 of spores/ml. After incubation for 3 hours at 20° C., each wound and the skin area of 0.5 cm around the wound was treated with in total 75 μl of a freshly prepared aqueous antifungal composition comprising either 400 ppm natamycin (DSM Food Specialties, Delft, The Netherlands), 600 ppm fenpiclonil or both. Each antifungal composition also comprised 3.2% (w/w) beeswax, 0.8% (w/w) glycerol, 0.7% (w/w) polyoxyethylene sorbitan monostearate (Tween 60), 0.2% (w/w) polyoxyethylene sorbitan monooleate (Tween 80), 0.05% (w/w) methylhydroxyethyl-cellulose (MHEC), 0.03% (w/w) anti-foaming agent, 0.02% (w/w) xanthan gum, 0.02% (w/w) citric acid, 0.01% (w/w) lactic acid and 0.01% potassium sorbate. A composition without natamycin or fenpiclonil was used as control.
The treated sweet peppers were incubated in a closed box in the dark at 20° C. and assessed on mould growth during incubation. The antifungal activity (in %) of the individual and combined active ingredients was determined by calculating the reduction in mould growth observed on the sweet peppers treated with the antifungal composition in comparison to the mould growth on the sweet peppers treated with the control composition according to the Colby method (Colby, 1967) as described in Example 5.

Compound: N#Cc1c[nH]cc1-c1cccc(Cl)c1Cl [Fenpiclonil, fenpiclonil]
- Observed antifungal activity O (%) ([1]; 22-23 days): 0%
- Observed antifungal activity O (%) ([1]; 12 days): 78%
- Observed antifungal activity O (%) ([1]; 13 days): 70%
- Observed antifungal activity O (%) ([1]; 14 days): 66%
- Observed antifungal activity O (%) ([1]; 15 days): 59%
- Observed antifungal activity O (%) ([1]; 16 days): 47%
- Observed antifungal activity O (%) ([1]; 18 days): 28%
- Observed antifungal activity O (%) ([1]; 19 days): 17%
- Observed antifungal activity O (%) ([1]; 20 days): 6%
- Observed antifungal activity O (%) ([1]; 21 days): 3%
- Number of moulded oranges/total number of 8 oranges ([1]; Day 14-15): 6 and 6/8
- Number of moulded oranges/total number of 8 oranges ([1]; Day 16): 8 and 8/8
- Number of moulded oranges/total number of 8 oranges ([1]; Day 18): 8 and 8/8
- Number of moulded oranges/total number of 8 oranges ([1]; Day 19-23): 8 and 8/8
- Observed antifungal activity O (%) ([2]; 47 days): 0%
- Observed antifungal activity O (%) ([2]; 48 days): 0%
- Observed antifungal activity O (%) ([2]; 49 days): 0%
- Observed antifungal activity O (%) ([2]; 50 days): 0%
